In ChEMBL document CHEMBL1201862, “PubChem BioAssay data set” (2004):
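Following 48 hours of exposure in 96-well plates, responses at five concentrations were used to interpolate endpoints linearly. GI50 = concentration required for 50% inhibition of growth.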 The source made the active and inactive calls. No stated cut-off is given here; in the data, active = GI50 up to about 1.1 µM and inactive = higher.

Legend:
Test in all cases: NCI-60 cell line screen, 48 h
HL-60 = tested on: HL-60
COLO 205 = tested on: COLO 205
NCI/ADR-RES = tested on: NCI/ADR-RES
OVCAR-4 = tested on: OVCAR-4
RPMI-8226 = tested on: RPMI-8226
CAKI-1 = tested on: CAKI-1
SR = tested on: SR
786-0 = tested on: 786-0
UO-31 = tested on: UO-31
PC-3 = tested on: PC-3
KM12 = tested on: KM12
T47D = tested on: T47D
EKVX = tested on: EKVX
SK-MEL-5 = tested on: SK-MEL-5
MOLT-4 = tested on: MOLT-4
HCT-116 = tested on: HCT-116
MDA-N = tested on: MDA-N
OVCAR-5 = tested on: OVCAR-5
ACHN = tested on: ACHN

| SMILES | GI50 (HL-60) | GI50 (COLO 205) | GI50 (NCI/ADR-RES) | GI50 (OVCAR-4) | GI50 (RPMI-8226) | GI50 (CAKI-1) | GI50 (SR) | GI50 (786-0) | GI50 (UO-31) | GI50 (PC-3) | GI50 (KM12) | GI50 (T47D) | GI50 (EKVX) | GI50 (SK-MEL-5) | GI50 (MOLT-4) | GI50 (HCT-116) | GI50 (MDA-N) | GI50 (OVCAR-5) | GI50 (ACHN) |
| --- | --- | --- | --- | --- | --- | --- | --- | --- | --- | --- | --- | --- | --- | --- | --- | --- | --- | --- | --- |
| CCOC(=O)OC1(c2ccccc2)CCN(C)CC1 | > 100 µM (inactive) | > 100 µM (inactive) | > 100 µM (inactive) | > 100 µM (inactive) | > 100 µM (inactive) | > 100 µM (inactive) | > 100 µM (inactive) | > 100 µM (inactive) | > 100 µM (inactive) | > 100 µM (inactive) | > 100 µM (inactive) | > 100 µM (inactive) | > 100 µM (inactive) | > 100 µM (inactive) | > 100 µM (inactive) | > 100 µM (inactive) | > 100 µM (inactive) | > 100 µM (inactive) | > 100 µM (inactive) |
| CCCn1c2c(c3ccccc3c1=O)C(=O)c1ccccc1-2 | 1.78 µM (inactive) | > 54.6 µM (inactive) | > 100 µM (inactive) | > 100 µM (inactive) | > 28.8 µM (inactive) | 48.3 µM (inactive) | 5.14 µM (inactive) | 16.4 µM (inactive) | > 19.7 µM (inactive) | > 100 µM (inactive) | 20.7 µM (inactive) | > 54.1 µM (inactive) | > 76.7 µM (inactive) | 11.2 µM (inactive) | 3.61 µM (inactive) | 25.2 µM (inactive) | > 100 µM (inactive) | > 100 µM (inactive) | 53.6 µM (inactive) |
| O=[N+]([O-])c1ccc(Cl)cc1/C=N/C12CC3CC(CC(C3)C1)C2 | 5.77 µM (inactive) | 45 µM (inactive) | 30.1 µM (inactive) | 63.5 µM (inactive) | 20.2 µM (inactive) | > 100 µM (inactive) | 7.03 µM (inactive) | 41.1 µM (inactive) | 76.7 µM (inactive) | 35.9 µM (inactive) | 29 µM (inactive) | 37.4 µM (inactive) | > 100 µM (inactive) | 56.6 µM (inactive) | 18.5 µM (inactive) | 5.24 µM (inactive) | 52.5 µM (inactive) | > 100 µM (inactive) | > 87.9 µM (inactive) |
| CCOC(=O)c1c(-c2ccc(Cl)cc2)c(C#N)c(=S)n(C2OC(COC(C)=O)C(OC(C)=O)C(OC(C)=O)C2OC(C)=O)c1-c1ccccc1 (stereo not given) | > 100 µM (inactive) | > 100 µM (inactive) | > 100 µM (inactive) | > 100 µM (inactive) | > 100 µM (inactive) | > 100 µM (inactive) | > 100 µM (inactive) | > 100 µM (inactive) | > 100 µM (inactive) | > 100 µM (inactive) | > 100 µM (inactive) | > 100 µM (inactive) |  | 28 µM (inactive) | > 100 µM (inactive) | > 100 µM (inactive) | > 100 µM (inactive) | > 100 µM (inactive) | > 100 µM (inactive) |
| O=C(O)c1nn(-c2ccccc2-c2nnc(O)nc2O)c(=O)[nH]c1=O | 30.5 µM (inactive) | > 100 µM (inactive) | > 100 µM (inactive) | > 100 µM (inactive) | > 100 µM (inactive) | > 100 µM (inactive) | > 100 µM (inactive) | > 100 µM (inactive) | > 100 µM (inactive) | > 100 µM (inactive) | > 100 µM (inactive) | > 100 µM (inactive) | > 100 µM (inactive) | > 100 µM (inactive) | 4.73 µM (inactive) | > 100 µM (inactive) | > 100 µM (inactive) | > 100 µM (inactive) | > 100 µM (inactive) |
| CC(C)n1c2c(c3ccccc3c1=O)C(=O)c1ccccc1-2 | > 100 µM (inactive) | > 100 µM (inactive) | > 100 µM (inactive) | 50.5 µM (inactive) | > 100 µM (inactive) | > 100 µM (inactive) | > 100 µM (inactive) | > 100 µM (inactive) | > 100 µM (inactive) | > 100 µM (inactive) | > 100 µM (inactive) | > 100 µM (inactive) | > 100 µM (inactive) | > 100 µM (inactive) | > 100 µM (inactive) | > 100 µM (inactive) | > 100 µM (inactive) | > 100 µM (inactive) |  |
| N#C[BH2-][n+]1cn(C2CC(O)C(COP(=O)(O)OC3CC(n4ccc(N)nc4=O)OC3CO)O2)c2nc(N)[nH]c(=O)c21 (stereo not given) | > 100 µM (inactive) | > 100 µM (inactive) | > 100 µM (inactive) | > 100 µM (inactive) | > 100 µM (inactive) | > 100 µM (inactive) | > 100 µM (inactive) | > 100 µM (inactive) | > 100 µM (inactive) | > 100 µM (inactive) | > 100 µM (inactive) | > 100 µM (inactive) | > 100 µM (inactive) | > 100 µM (inactive) | > 100 µM (inactive) | > 100 µM (inactive) | > 100 µM (inactive) | > 100 µM (inactive) | > 100 µM (inactive) |
| CC1(C)NC2C(=O)c3c([nH]c4ccccc34)[C@]3(C)CCC1CC23 (stereo not given in full) | > 100 µM (inactive) | > 100 µM (inactive) | > 100 µM (inactive) | 60.8 µM (inactive) | 82.8 µM (inactive) | > 100 µM (inactive) | 55.2 µM (inactive) | > 100 µM (inactive) | > 100 µM (inactive) | > 100 µM (inactive) | > 100 µM (inactive) | 21.6 µM (inactive) | > 100 µM (inactive) | > 100 µM (inactive) | 59.4 µM (inactive) | > 100 µM (inactive) | > 100 µM (inactive) | > 100 µM (inactive) | > 100 µM (inactive) |
| Cc1ccc(S(=O)(=O)n2c3c(c4ccccc42)CCN2CCC(Br)C[C@@H]32)cc1 (stereo not given in full) | 5.12 µM (inactive) | 16.3 µM (inactive) | 16.2 µM (inactive) | 13.1 µM (inactive) | 6.18 µM (inactive) | 11.8 µM (inactive) | 5.11 µM (inactive) | 16.6 µM (inactive) | 11.9 µM (inactive) | 13.1 µM (inactive) | 8.81 µM (inactive) | 6.11 µM (inactive) | 19.1 µM (inactive) | 7.74 µM (inactive) | 9.73 µM (inactive) |  | 4.42 µM (inactive) | 17.3 µM (inactive) | 17 µM (inactive) |
| COc1ccccc1/C=C/C1=NN(c2cccc(S(=O)(=O)O)c2)C2(C1)SCC(=O)N2c1nc2ccccc2s1 (stereo not given) | 50.2 µM (inactive) | 67.8 µM (inactive) | > 100 µM (inactive) | 86.7 µM (inactive) | 23.6 µM (inactive) | > 100 µM (inactive) | 24.5 µM (inactive) | > 100 µM (inactive) | 71.9 µM (inactive) | 70.1 µM (inactive) | 41.1 µM (inactive) | 20.4 µM (inactive) | 68.2 µM (inactive) | 64.4 µM (inactive) | 36.7 µM (inactive) | > 100 µM (inactive) | > 100 µM (inactive) | > 100 µM (inactive) | 55.7 µM (inactive) |
| CC12CCC(C(Br)(Br)C1=O)C2(C)C (stereo not given) | < 0.0148 µM (active) | 3.01 µM (inactive) | 0.131 µM (active) | 0.333 µM (active) | 0.0759 µM (active) | 1.8 µM (inactive) | < 0.01 µM (active) | 0.0545 µM (active) | 0.48 µM (active) | 1.07 µM (active) | 2.77 µM (inactive) | 0.0467 µM (active) | 0.493 µM (active) | 0.348 µM (active) | 0.091 µM (active) | 0.128 µM (active) | 0.196 µM (active) | 2.28 µM (inactive) | 0.553 µM (active) |
| O=C(/C=C/c1ccccc1)Oc1cccc(Br)c1 | 18.1 µM (inactive) | 64.1 µM (inactive) | 60.1 µM (inactive) | 93.8 µM (inactive) | 14.1 µM (inactive) | 48.6 µM (inactive) | 23.4 µM (inactive) | > 100 µM (inactive) | 52.8 µM (inactive) | 93.1 µM (inactive) | 31.8 µM (inactive) | 53.3 µM (inactive) | 48.3 µM (inactive) | 55.3 µM (inactive) | 11.6 µM (inactive) | 25.6 µM (inactive) | 96.6 µM (inactive) | > 100 µM (inactive) | > 100 µM (inactive) |
| CCN(CC)CCOc1ccc(N2C(=O)c3cc(OC)c(OC)cc3C2=O)cc1 | > 100 µM (inactive) | > 100 µM (inactive) | > 100 µM (inactive) | > 100 µM (inactive) | > 100 µM (inactive) | > 100 µM (inactive) | > 100 µM (inactive) | > 100 µM (inactive) |  | > 100 µM (inactive) | > 100 µM (inactive) | > 100 µM (inactive) | > 100 µM (inactive) | > 100 µM (inactive) | > 100 µM (inactive) | > 100 µM (inactive) | > 100 µM (inactive) | > 100 µM (inactive) | > 100 µM (inactive) |
| CN1CCCN(C)C1c1cc([N+](=O)[O-])ccc1O | 21.5 µM (inactive) | 56.1 µM (inactive) | 35.6 µM (inactive) | 32 µM (inactive) | 31 µM (inactive) | > 100 µM (inactive) | 21.6 µM (inactive) | 33 µM (inactive) | 0.436 µM (active) | 23.6 µM (inactive) | 36.6 µM (inactive) | 47.6 µM (inactive) | 38.6 µM (inactive) | 19.7 µM (inactive) | 22.1 µM (inactive) | 32.6 µM (inactive) | 40.7 µM (inactive) | > 100 µM (inactive) | 20.9 µM (inactive) |
| [N-]=[N+]=CC(=O)OCC1NC(=O)C(COC(=O)C=[N+]=[N-])NC1=O (stereo not given) | > 100 µM (inactive) | > 100 µM (inactive) | > 100 µM (inactive) | > 100 µM (inactive) | > 100 µM (inactive) | > 100 µM (inactive) | > 100 µM (inactive) | > 100 µM (inactive) | > 100 µM (inactive) | > 100 µM (inactive) | > 100 µM (inactive) | > 100 µM (inactive) | > 100 µM (inactive) |  | > 100 µM (inactive) | > 100 µM (inactive) | > 100 µM (inactive) | > 100 µM (inactive) | > 100 µM (inactive) |
